Measured values: patent US11351173B2, “Substituted pyrrolo[1,2-a]pyrimidines and their use in the treatment of medical disorders” (Bial—R&D Investments, S.A., priority 2014, dated 2022)
Converted amounts (≈) assume the structure as drawn.

Key:
[1] = target: T1, glucocerebrosidase (Gcase) (Homo sapiens, UniProt P04062); assay: Glucocerebrosidase (Gcase) activation assay, 4-methylumbelliferyl-beta-D-glucopyranoside substrate, fluorescence readout; format: biochemical; conditions: for activation at 0.1 µM / Percent Gcase Activation, 0.1 μM Test Compound: test compound at 0.1 μM; for activation at 0.1 µM: read-out: Percent Gcase Activation, 0.1 μM Test Compound; for activation at 1 µM / Percent Gcase Activation, 1 μM Test Compound: test compound at 1.0 μM; for activation at 1 µM: read-out: Percent Gcase Activation, 1 μM Test Compound
T1 construct: micellar solution containing 10 nM GCase and 100 nM saposin C
T1 sequence (P04062 40-536): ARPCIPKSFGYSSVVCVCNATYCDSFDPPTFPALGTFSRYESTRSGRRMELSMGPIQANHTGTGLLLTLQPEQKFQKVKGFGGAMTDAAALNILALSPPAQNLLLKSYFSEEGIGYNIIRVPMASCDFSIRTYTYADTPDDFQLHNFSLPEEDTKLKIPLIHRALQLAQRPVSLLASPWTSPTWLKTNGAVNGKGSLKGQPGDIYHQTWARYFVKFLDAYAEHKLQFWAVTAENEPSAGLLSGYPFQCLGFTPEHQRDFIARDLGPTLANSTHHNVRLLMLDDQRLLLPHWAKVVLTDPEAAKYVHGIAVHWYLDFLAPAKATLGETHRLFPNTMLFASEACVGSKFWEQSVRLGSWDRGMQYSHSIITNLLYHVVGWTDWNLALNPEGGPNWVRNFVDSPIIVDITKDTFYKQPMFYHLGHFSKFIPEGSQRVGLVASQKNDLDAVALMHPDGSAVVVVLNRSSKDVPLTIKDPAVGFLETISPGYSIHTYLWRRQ
Protocol: The ability of exemplary compounds to activate glucocerebrosidase (Gcase) was measured.
A 484 μL aliquot of a 1.0 mg/mL solution of phosphatidylserine (PS) (Sigma P7769) in chloroform was evaporated under a stream of nitrogen for 1 hour. The lipid film was dissolved over 4 minutes of vigorous vortexing in 40 mL of 176 mM K2HPO4/50 mM citric acid (pH 4.7) containing 7.5 μL of triton X-100, resulting in a mixed micellar preparation with a composition of 0.32 mM triton and 0.37 mol % PS. 4-Methylumbelliferyl-beta-D-glucopyranoside (ACROS-337025000) was dissolved in the micellar solution to a final concentration of 2 mM for use as the reaction substrate.
Test compounds were diluted to the desired concentrations with dimethylsulfoxide (DMSO) from 10 mM stocks, and 0.41 μL of the DMSO compound mixture was added to 100 μL of micellar solution containing 10 nM GCase and 100 nM saposin C (Enzo ALX-201-262-C050). Pre-incubation was allowed to occur for 30 minutes at room temperature, after which the reaction was initiated by combining 25 μL of substrate solution with 25 μL of compound/GCase/saposin mixture. The reaction proceeded for 15 minutes at room temperature and was stopped by adding 150 μL of 1M glycine, pH 12.5. The endpoint of the reaction was monitored by measuring fluorescence intensity (excitation: 365 nm; emission: 440 nm) on a SpectraMax i3 instrument (Molecular Devices). Test compounds were screened at 1.0 and 0.1 μM final concentration, and subsequent 8-point dose response curves were obtained using 3-fold dilutions from a maximum final concentration of 5 μM.

[2] = Compound solubility in water; conditions: for solubility: Compound Solubility in Water

Row | SMILES | activation at 0.1 µM [1] | activation at 1 µM [1] | solubility ([2]; water, in water) | solubility ([2]; water) | other results
1 | Cc1cc(C(F)(F)F)nc2c(C(=O)NC3CCC4(CCCCO4)C3)ccn12 (stereo not shown) [III-248] | 10 to 20% | > 60% | – | – | Compound Solubility in Water ([2]; in water): 28.2 µg/mL
2 | COCC#Cc1ccc(NC(=O)c2ccn3c(C)cc(C)nc23)cn1 [III-282] | – | – | 0.7 µg/mL (≈ 2.09 µM) | – | –
3 | Cc1cc(C(F)(F)F)nc2c(C(=O)Nc3ccc(-c4cocn4)cc3)ccn12 [III-252] | 10 to 20% | > 60% | 1.8 µg/mL (≈ 4.66 µM) | – | –
4 | CCO[C@H]1CC[C@H](NC(=O)c2ccn3c(C)cc(C)nc23)CC1 [III-99] | < 10% | < 30% | – | 30.5 µg/mL (≈ 96.7 µM) | –
5 | Cc1cc(Cl)nc2c(C(=O)N[C@H]3CC[C@H](OCC(C)C)CC3)ccn12 [III-73] | > 20% | > 60% | – | 2 µg/mL (≈ 5.5 µM) | –
6 | [2H]C1(NC(=O)c2ccn3c(C(C)C)cc(COC)nc23)CCOc2cc(F)c(F)cc21 (stereo not shown) [III-60] | < 10% | 30 to 60% | – | 2.4 µg/mL (≈ 5.76 µM) | –
7 | Cc1cc(C)n2ccc(C(=O)Nc3ccc(Cl)c(COc4cccnc4)c3)c2n1 [III-15] | > 20% | > 60% | – | < 0.1 µg/mL | –
8 | Cc1cc(C)n2ccc(C(=O)Nc3ccc(-c4ccncc4)cc3)c2n1 [III-277] | – | – | 0.01 µg/mL (≈ 0.0292 µM) | – | Percent Gcase Activation, 0.1 μM Test Compound [1]: * (less than 10% Gcase activation)
9 | Cc1cc(C)n2ccc(C(=O)NC3CCC(c4ncco4)CC3)c2n1 (stereo not shown) [III-245] | < 10% | < 30% | 27.7 µg/mL (≈ 81.9 µM) | – | –
10 | Cc1cc(C)n2ccc(C(=O)NC3CCCc4ccncc43)c2n1 (stereo not shown) [III-227] | < 10% | < 30% | 15.7 µg/mL (≈ 49 µM) | – | –
11 | C#Cc1cccc(C(C)(C)NC(=O)c2ccn3c(COC)cc(COC)nc23)c1 [III-157] | > 20% | > 60% | – | 2.6 µg/mL (≈ 6.64 µM) | –
12 | CO[C@H]1CC[C@H](C(C)(C)NC(=O)c2ccn3c(C)cc(Cl)nc23)CC1 [III-75] | 10 to 20% | > 60% | – | 5.3 µg/mL (≈ 14.6 µM) | –
13 | Cc1cc(Br)n2ccc(C(=O)Nc3ccc(-c4cocn4)cc3)c2n1 [III-41] | < 10% | 30 to 60% | – | 0.02 µg/mL (≈ 0.0503 µM) | –
14 | Cc1cc(C)n2ccc(C(=O)NC3CCCc4ccc(-c5cocn5)cc43)c2n1 (stereo not shown) [III-122] | 10 to 20% | > 60% | – | 0.8 µg/mL (≈ 2.07 µM) | –
15 | Cc1cc(C)n2ccc(C(=O)NC3CCCCc4ccccc43)c2n1 (stereo not shown) [III-226] | > 20% | > 60% | 1.6 µg/mL (≈ 4.8 µM) | – | –
16 | COCCOCCO[C@H]1CC[C@H](NC(=O)c2ccn3c(C)cc(C)nc23)CC1 [III-105] | < 10% | < 30% | – | 47.3 µg/mL (≈ 121 µM) | –
17 | Cc1cc(C)n2ccc(C(=O)Nc3ccc(-c4cnn(C)c4)nc3)c2n1 [III-283] | – | – | 0.2 µg/mL (≈ 0.577 µM) | – | Percent Gcase Activation, 0.1 μM Test Compound [1]: * (less than 10% Gcase activation); Percent Gcase Activation, 1 μM Test Compound [1]: + (less than 30% Gcase activation)
18 | Cc1ccnc2c(C(=O)NC(C)(C)c3ccccc3)ccn12 [III-259] | < 10% | 30 to 60% | 16.7 µg/mL (≈ 56.9 µM) | – | –
19 | Cc1cc(C)n2ccc(C(=O)NC3CCOc4cccc(F)c43)c2n1 (stereo not shown) [III-195] | > 20% | > 60% | – | 7 µg/mL (≈ 20.6 µM) | –
20 | Cc1cc(C)n2ccc(C(=O)NC3CCCC34CCCCO4)c2n1 (stereo not shown) [III-138] | 10 to 20% | > 60% | – | – | Compound Solubility in Water ([2]; water): 33.7 µg/mL
21 | Cc1cc(C)n2ccc(C(=O)Nc3ccc(-c4cnn(C)c4)nc3)c2n1 [III-21] | < 10% | < 30% | – | 0.2 µg/mL (≈ 0.577 µM) | –
22 | Cc1cc(C)n2ccc(C(=O)NC3CCOc4c(F)cccc43)c2n1 (stereo not shown) [III-224] | > 20% | > 60% | 1.5 µg/mL (≈ 4.42 µM) | – | –
23 | Cc1cc(C)n2ccc(C(=O)N[C@@H](C)c3ccccc3)c2n1 [III-166] | 10 to 20% | > 60% | – | 2 µg/mL (≈ 6.82 µM) | –
24 | Cc1cc(C)n2ccc(C(=O)Nc3ccc(-c4ccco4)nc3)c2n1 [III-10] | > 20% | > 60% | – | 0.3 µg/mL (≈ 0.903 µM) | –
25 | CCC(F)(F)CN1CCC(NC(=O)c2ccn3c(C)cc(C)nc23)C1 (stereo not shown) [III-205] | < 10% | < 30% | 21.3 µg/mL (≈ 60.8 µM) | – | –

Row | SMILES | activation at 0.1 µM [1] | activation at 1 µM [1] | solubility ([2]; water, in water) | solubility ([2]; water) | other results
26 | Cc1cc(C)n2ccc(C(=O)Nc3ccc(C4=NCCO4)cc3Cl)c2n1 [III-219] | > 20% | > 60% | 0.9 µg/mL (≈ 2.44 µM) | – | –
27 | C#Cc1cccc(C(C)(C)NC(=O)c2ccn3c(C)cc(COC)nc23)c1 [III-64] | > 20% | > 60% | – | 0.5 µg/mL (≈ 1.38 µM) | –
28 | Cc1cc(C)n2ccc(C(=O)Nc3ccc(-c4cccs4)nc3)c2n1 [III-275] | – | – | 0.01 µg/mL (≈ 0.0287 µM) | – | Percent Gcase Activation, 0.1 μM Test Compound [1]: *** (greater than 20% Gcase activation); Percent Gcase Activation, 1 μM Test Compound [1]: +++ (Gcase activation greater than 60%)
29 | CCCCCO[C@H]1CC[C@H](NC(=O)c2ccn3c(C)ccnc23)CC1 [III-260] | 10 to 20% | > 60% | 17.7 µg/mL (≈ 51.5 µM) | – | –
30 | Cc1cc(C)n2ccc(C(=O)Nc3ccc(OCCCCN)cc3)c2n1 [III-19] | < 10% | < 30% | – | 17.2 µg/mL (≈ 48.8 µM) | –
31 | C#Cc1ccc(NC(=O)c2ccn3c(C)cc(C)nc23)c(OCCOC)c1 [III-183] | > 20% | > 60% | – | 0.04 µg/mL (≈ 0.11 µM) | –
32 | Cc1cc(C)n2ccc(C(=O)NC3CCC(Oc4cc(C)on4)C3)c2n1 (stereo not shown) [III-244] | – | – | – | – | Percent Gcase Activation, 1 μM Test Compound [1]: +++ (Gcase activation greater than 60%)
33 | Cc1cc(C(F)(F)F)nc2c(C(=O)NC3CCCc4ccccc43)ccn12 (stereo not shown) [III-251] | > 20% | > 60% | 0.2 µg/mL (≈ 0.536 µM) | – | –
34 | CO[C@H]1CC[C@@H](C(C)(C)NC(=O)c2ccn3c(C)cc(Cl)nc23)CC1 [III-76] | > 20% | > 60% | – | 0.04 µg/mL (≈ 0.11 µM) | –
35 | Cc1cc(C)n2ccc(C(=O)NC3CCCC(Oc4cccs4)C3)c2n1 (stereo not shown) [III-191] | > 20% | > 60% | – | – | –
36 | CCCOC1CC(CNC(=O)c2ccn3c(C)cc(C)nc23)C1 (stereo not shown) [III-239] | < 10% | < 30% | – | – | –
37 | COc1cc(C)nc2c(C(=O)Nc3ccc(-c4cocn4)cc3)ccn12 [III-51] | 10 to 20% | < 30% | – | – | –
38 | Cc1cc(C)n2ccc(C(=O)Nc3ccc4c(c3)C(n3oc(C)cc3=O)CC4)c2n1 (stereo not shown) [III-97] | < 10% | 30 to 60% | – | – | –
39 | Cc1cc(C)n2ccc(C(=O)NC3CCC(Oc4cc(C)on4)C3)c2n1 (stereo not shown) [III-243] | < 10% | – | – | – | –
40 | Cc1cc(C)n2ccc(C(=O)NC3(C)CCCc4ncncc43)c2n1 (stereo not shown) [III-175] | < 10% | < 30% | – | – | –
41 | Cc1cc(C)n2ccc(C(=O)NC(C)(C)c3ccccc3Cl)c2n1 [III-79] | 10 to 20% | > 60% | – | – | –
42 | Cc1cc(C)n2ccc(C(=O)Nc3ccc4c(c3)OCO4)c2n1 [III-280] | – | – | 0.2 µg/mL (≈ 0.647 µM) | – | –
43 | COCc1cc(C(C)C)n2ccc(C(=O)NC3(C)CCCc4ncncc43)c2n1 (stereo not shown) [III-32] | < 10% | < 30% | – | – | –
44 | Cc1cc(C)n2ccc(C(=O)NC3CCC4(CCOCC4)CC3)c2n1 [III-140] | < 10% | < 30% | – | – | –
45 | Cc1cc(C)n2ccc(C(=O)Nc3ccc(N4CCCCC4)cc3)c2n1 [III-281] | – | – | < 0.1 µg/mL | – | –
46 | Cc1cc(C(F)(F)F)nc2c(C(=O)NC3(C)CCCc4ncncc43)ccn12 (stereo not shown) [III-250] | < 10% | < 30% | – | – | –
47 | Cc1cc(C)n2ccc(C(=O)N[C@@H](C)c3ccccc3F)c2n1 [III-77] | > 20% | > 60% | – | – | –
48 | Cc1cc(C)n2ccc(C(=O)N[C@@H](C)c3ccc(F)cc3)c2n1 [III-78] | > 20% | > 60% | – | – | –
49 | COCc1cc(C(C)C)nc2c(C(=O)NC3(C)CCCc4ncncc43)ccn12 (stereo not shown) [III-31] | < 10% | < 30% | – | – | –
